Laboratory results as given in PubChem BioAssay (NCI).
“And” between values parts separate entries of the source, which are not always exact repeats. Equal entries are not always repeated.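 Compound exposure: 48 hours, 5 concentrations, 96-well plates. Here, GI50 denotes the concentration required for 50% inhibition of growth. The concentration for full growth arrest is given as TGI.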

What was measured:
Assay in all cases: NCI tumour cell line growth inhibition, 48 h
[1] = test system: OVCAR-3 ovarian
[2] = test system: MDA-MB-435
[3] = test system: SR leukemia
[4] = test system: 786-0 renal
[5] = test system: OVCAR-8 ovarian
[6] = test system: A549 NSCLC
[7] = test system: NCI-H460 lung
[8] = test system: UACC-62 melanoma
[9] = test system: UACC-257 melanoma
[10] = test system: OVCAR-5 ovarian

Compound	GI50 [1]	TGI [1]	GI50 [2]	TGI [2]	GI50 [3]	TGI [3]	GI50 [4]	TGI [4]	GI50 [5]	TGI [5]	GI50 [6]	TGI [6]	GI50 [7]	TGI [7]	GI50 [8]	TGI [8]	GI50 [9]	TGI [9]	GI50 [10]	TGI [10]
CN1CCN(Cc2ccc(-c3cc4ncnc(Nc5ccc(OCc6cccc(F)c6)c(Cl)c5)c4s3)o2)CC1	4.23 µM	8.01 µM	4.68 µM	10.4 µM	4.43 µM	10 µM	4.47 µM	8.95 µM	4.53 µM	9.62 µM	3.2 µM	6.92 µM	4.56 µM	8.85 µM	4.97 µM	9.58 µM	4.26 µM	8.37 µM	3.91 µM	7.8 µM
C=C1C(=O)O[C@@H]2C[C@@H]1CC[C@]1(C)O[C@H]1CC[C@@]1(C)O[C@@H]1CC[C@@]2(C)O	16.2 µM	51.9 µM	33 µM	> 100 µM	3.49 µM	31.1 µM	27.7 µM	89.9 µM	30.7 µM	> 100 µM	> 100 µM	> 100 µM	> 100 µM	> 100 µM	42 µM	> 100 µM	61.9 µM	> 100 µM	29.2 µM	> 100 µM
CCNC(=O)C[C@@H]1N=C(c2ccc(Cl)cc2)c2cc(OC)ccc2-n2c(C)nnc21	6.29 µM	> 100 µM	1.75 µM	> 100 µM	0.567 µM	> 100 µM	16.4 µM	> 100 µM	8.9 µM	> 100 µM	13.1 µM	> 100 µM	> 100 µM	> 100 µM	0.618 µM	> 100 µM	2 µM	> 100 µM	> 100 µM	> 100 µM
CC(O)C1OC(O)C2OC(C)(C)OC12 (stereo not drawn)		> 100 µM		> 100 µM		> 100 µM		> 100 µM		> 100 µM		> 100 µM		> 100 µM		> 100 µM		> 100 µM		> 100 µM
Cc1[nH]c(=O)[nH]c(=O)c1N(CCF)CCCl	147 µM and 530 µM	356 µM and 1350 µM and 972 µM		876 µM		1870 µM		1470 µM	210 µM and 388 µM and 217 µM	632 µM and 1020 µM and 1140 µM	335 µM and 455 µM	990 µM and 1210 µM and 1850 µM	118 µM and 264 µM and 171 µM	689 µM and 834 µM and 633 µM	173 µM and 360 µM	419 µM and 1040 µM and 673 µM	228 µM	465 µM and 1070 µM and 855 µM	329 µM and 400 µM	676 µM and 976 µM and 1200 µM
CCC/C(=N\NC(=S)N1CCN(c2ccccn2)CC1)c1ccccn1		0.615 µM and 1.14 µM		1.96 µM		0.117 µM	0.0284 µM	1.82 µM and 1.94 µM		0.476 µM and 1.5 µM	0.032 µM	> 3.16 µM and 1.93 µM		> 4.19 µM		0.242 µM and 1.43 µM		0.224 µM and 1.87 µM	0.113 µM	> 4.36 µM
COC(=O)/C=C/c1cc(O)c2c(c1)C(C(=O)OC)C(c1ccc(O)c(O)c1)O2 (stereo not drawn)	< 0.0488 µM			0.0513 µM	0.051 µM and 0.0369 µM	> 54.9 µM and 6 µM	0.626 µM	> 56.3 µM	0.526 µM and 0.0809 µM	> 54.9 µM and 12 µM	4.95 µM and 1.11 µM	61.9 µM and 23.7 µM	1.46 µM and 0.363 µM	12.3 µM and 12.1 µM	0.0678 µM	4.56 µM and 27.9 µM	11.5 µM and 4.5 µM	63.3 µM and 48.7 µM	4.28 µM and 2.95 µM	> 100 µM
CC1=C(C)C(=O)c2c(c(C(=O)c3ccccc3)c3nc4ccccc4n3c2C)C1=O	> 100 µM	> 100 µM	> 100 µM	> 100 µM	> 100 µM	> 100 µM	26.8 µM	95.2 µM	39.7 µM	> 100 µM	> 100 µM	> 100 µM	63.3 µM	> 100 µM	35 µM	> 100 µM	95 µM	> 100 µM	> 100 µM	> 100 µM
CC(C)(C)[Si](C)(C)OCC1CCC(n2cnc3c(NC(=O)c4ccccc4)ncnc32)O1 (stereo not drawn)		28 µM		29.2 µM		53.9 µM		31.3 µM		60.2 µM		39.9 µM		32 µM		29.7 µM		33.4 µM		32.3 µM
OCCN(CCO)N=Nc1ccc(-c2nc3ccccc3[nH]2)cc1	11 µM	25.7 µM	18.5 µM	38.8 µM	20.3 µM	58.2 µM	25.2 µM	56.2 µM	24.7 µM	53.9 µM	44.9 µM	> 100 µM	13.7 µM	29.5 µM	35.2 µM	> 100 µM	33.2 µM	> 100 µM	> 100 µM	> 100 µM
